Data published in ChEMBL document CHEMBL1201862, “PubChem BioAssay data set” (2004).
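Five concentrations, 48 hours, 96-well plates. GI50 marks 50% less growth.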 The source made the active and inactive calls. Cut-off read from the data, not from the text of the source: active = GI50 up to about 1.1 µM and inactive = higher.

What was measured:
Assay in all cases: inhibition of tumour cell growth, NCI panel, 48 h
786-0 = test system: 786-0
A498 = test system: A498
A549 = test system: A549
ACHN = test system: ACHN
Hs-578T = test system: Hs-578T
K562 = test system: K562
MDA-MB-231 = test system: MDA-MB-231
MDA-N = test system: MDA-N
NCI-H23 = test system: NCI-H23
NCI-H460 = test system: NCI-H460
OVCAR-3 = test system: OVCAR-3
PC-3 = test system: PC-3
SK-MEL-28 = test system: SK-MEL-28
SK-MEL-5 = test system: SK-MEL-5
SN12C = test system: SN12C
SNB-75 = test system: SNB-75
TK-10 = test system: TK-10
UACC-257 = test system: UACC-257
NCI-H522 = test system: NCI-H522

Row | SMILES | GI50 (786-0) | GI50 (A498) | GI50 (A549) | GI50 (ACHN) | GI50 (Hs-578T) | GI50 (K562) | GI50 (MDA-MB-231) | GI50 (MDA-N) | GI50 (NCI-H23) | GI50 (NCI-H460) | GI50 (OVCAR-3) | GI50 (PC-3) | GI50 (SK-MEL-28) | GI50 (SK-MEL-5) | GI50 (SN12C) | GI50 (SNB-75) | GI50 (TK-10) | GI50 (UACC-257) | GI50 (NCI-H522)
1 | N#CC(C#N)=C(N)/C(C#N)=C/c1ccc2ccccc2n1 | 17.9 µM (inactive) | > 100 µM (inactive) | > 100 µM (inactive) | 17.2 µM (inactive) | 21.7 µM (inactive) | 32.6 µM (inactive) | 23.7 µM (inactive) | 32.7 µM (inactive) | 31.6 µM (inactive) | 85.7 µM (inactive) | 13.5 µM (inactive) | 26.2 µM (inactive) | 18.6 µM (inactive) | 23.8 µM (inactive) | 30.1 µM (inactive) | 25.8 µM (inactive) | > 100 µM (inactive) | 48.8 µM (inactive) | 
2 | O=C(O)c1cccc(NC(C(=O)c2ccccc2)c2ccccc2)c1 (stereo unspecified) | > 100 µM (inactive) | > 100 µM (inactive) | > 100 µM (inactive) | > 100 µM (inactive) | 0.714 µM (active) | > 100 µM (inactive) | > 100 µM (inactive) | > 100 µM (inactive) | > 100 µM (inactive) | > 100 µM (inactive) | > 100 µM (inactive) | > 100 µM (inactive) | > 100 µM (inactive) | > 100 µM (inactive) | > 100 µM (inactive) |  | > 100 µM (inactive) |  | 78.9 µM (inactive)
3 | CCOC(=O)C(C)c1nc2cc(C(F)(F)F)ccc2[nH]c1=O (stereo unspecified) | > 100 µM (inactive) | 64.3 µM (inactive) | > 100 µM (inactive) | > 100 µM (inactive) | > 100 µM (inactive) | 59.8 µM (inactive) | > 100 µM (inactive) | > 100 µM (inactive) | 81.7 µM (inactive) | > 100 µM (inactive) | 82 µM (inactive) | 49 µM (inactive) | > 100 µM (inactive) | 42.2 µM (inactive) | > 100 µM (inactive) | > 100 µM (inactive) | > 100 µM (inactive) | 69.8 µM (inactive) | 
4 | CC1=C(C(=O)OCCc2ccc([N+](=O)[O-])cc2)C(c2cccc([N+](=O)[O-])c2)C(C(=O)OC(C)C)=C(C)N1 (stereo unspecified) | 6.49 µM (inactive) |  | 4.99 µM (inactive) | 4.82 µM (inactive) | 2.86 µM (inactive) | 3.52 µM (inactive) |  | 5.11 µM (inactive) | 4.3 µM (inactive) | 3.72 µM (inactive) | 7.59 µM (inactive) | 2.26 µM (inactive) | 80 µM (inactive) | 2.62 µM (inactive) | 11.8 µM (inactive) | 5.69 µM (inactive) | 44.4 µM (inactive) | 5.89 µM (inactive) | 1.87 µM (inactive)
5 | CC(=O)NC1C(OCc2ccccc2)OC(CO)C(O)C1OCC(=O)NC(C(=O)NC(CCC(=O)NCCCCCC(=O)Nc1ccc2c(c1)CN1C(=O)c3ccccc3C1=N2)C(N)=O)C(C)C (stereo unspecified) | 16.4 µM (inactive) | 24.9 µM (inactive) | 41.4 µM (inactive) | 46.3 µM (inactive) | 23.7 µM (inactive) | 36 µM (inactive) | 25.5 µM (inactive) | 62.7 µM (inactive) | 35.3 µM (inactive) | 20.8 µM (inactive) | 67.6 µM (inactive) | 28.5 µM (inactive) | 20.8 µM (inactive) | 21.4 µM (inactive) | > 100 µM (inactive) | 22 µM (inactive) | 18.3 µM (inactive) | 25.9 µM (inactive) | 
6 | CCN1c2cc(Br)cc3[nH]c(=O)n(c23)CCC1C (stereo unspecified) | 14.3 µM (inactive) | 12.3 µM (inactive) | 15.1 µM (inactive) | 19.5 µM (inactive) | 3.46 µM (inactive) | 5.58 µM (inactive) | 17.3 µM (inactive) | 4.89 µM (inactive) | 21.7 µM (inactive) | 17 µM (inactive) | 14.6 µM (inactive) | 17.2 µM (inactive) | 18.7 µM (inactive) | 15.2 µM (inactive) | 16.7 µM (inactive) | 12.3 µM (inactive) | 15.9 µM (inactive) | 17.4 µM (inactive) | 
7 | CC(C)(C)OC(=O)C1C(=O)NC(=O)CC1CC(OCc1ccccc1)C(COCc1ccccc1)OCc1ccccc1 (stereo unspecified) | 6.79 µM (inactive) | 26.5 µM (inactive) | 5.06 µM (inactive) | 10.2 µM (inactive) | 14 µM (inactive) | 5.19 µM (inactive) |  | 16.2 µM (inactive) | 10.1 µM (inactive) | 13.4 µM (inactive) |  | 6.44 µM (inactive) | 29.4 µM (inactive) | 12.6 µM (inactive) | 25 µM (inactive) |  | > 100 µM (inactive) | 15.5 µM (inactive) | 
